As usually defined, the MIC90 is an inhibitory concentration at the 90% level, which refers to growth in some studies and to a panel of isolates in others.

Converted amounts (≈) assume the structure as drawn.

The test system of assay [1] is Mycobacterium tuberculosis. Put plainly: Antimycobacterial activity against Mycobacterium tuberculosis H37Ra assessed as inhibition of bacterial growth measured for 5 days by luminometer. The class given is functional. Particulars: 120 h, time 5 day.
Assay [2] deals with Mycobacterium marinum. Put plainly: Antimycobacterial activity against Mycobacterium marinum assessed as inhibition of bacterial growth measured for 5 days by luminometer. The following applies: 120 h, time 5 day. The class given is functional.

As to `COc1c(-c2ccccc2)nc2ccc(Cl)nn12`, in assay [1], the MIC90 was found to be 385 µM (≈ 100 µg/mL).

With `COc1c(-c2ccc(F)cc2)nc2ccc(N(C)Cc3ccccc3)nn12`, the MIC90 in assay [1] and in assay [2] was 1.38 µM (≈ 0.5 µg/mL) each time. As for `CCOc1c(-c2ccccc2)nc2ccc(SCc3cccc(OC)c3)nn12`, the MIC90 stood at 2.55 µM (≈ 0.998 µg/mL) in assay [1] and 1.28 µM (≈ 0.501 µg/mL) in assay [2]. In the case of `COc1cccc(CS(=O)(=O)c2ccc3nc(-c4ccc(F)cc4)c(OC)n3n2)c1`, the MIC90 in assay [1] and in assay [2] was 234 µM (≈ 100 µg/mL) in each case.

`O=c1oc2ccccc2c2nc3ccc(SCc4ccccc4)nn3c12`: the MIC90 in assay [1] and in assay [2] was 278 µM (≈ 99.9 µg/mL) in each case. Turning to `COc1ccc(CSc2ccc3nc(-c4ccc(Cl)c(Cl)c4)c(OC)n3n2)cc1`, the MIC90 in assay [1] and in assay [2] was greater than 220 µM each time. As for `COc1c(-c2ccccc2)nc2ccc(N(C)Cc3ccccc3)nn12`, the MIC90 in assay [1] is 2.9 µM (≈ 0.999 µg/mL); in assay [2], 1.45 µM (≈ 0.499 µg/mL).

As for `COc1ccc(CSc2ccc3nc(-c4ccccc4)c(OC)n3n2)cc1`, the MIC90 in assay [1] and in assay [2] was 5.3 µM (≈ 2 µg/mL) each time. For `c1ccc(CSc2ccc3nc(-c4ccccc4)cn3n2)cc1`, the MIC90 in assay [1] and in assay [2] was greater than 315 µM throughout. Turning to `COc1c(C)nc2ccc(Oc3ccccc3)nn12`, in assay [1], the MIC90 was greater than 117 µM. Consider `COc1cccc(CSc2ccc3nc(-c4ccc(Br)cc4)c(OC)n3n2)c1`, for which the MIC90 is 11 µM (≈ 5 µg/mL) in assay [1] and 11 µM (≈ 5.02 µg/mL) in assay [2]. `COc1c(-c2ccccc2)nc2ccc(SCc3ccccc3)nn12`: the MIC90 in assay [1] was 1.44 µM (≈ 0.5 µg/mL); in assay [2] it was 0.72 µM (≈ 0.25 µg/mL). Regarding `COc1ccc(CSc2ccc3nc(-c4ccc(F)cc4)c(OC)n3n2)cc1`, the MIC90 in assay [1] is 6.32 µM (≈ 2.5 µg/mL); in assay [2], 12.6 µM (≈ 4.98 µg/mL).

In the case of `CN(Cc1ccccc1)c1ccc2nc(-c3ccccc3)c(O)n2n1`, the results for the MIC90 in assay [1] and in assay [2] were 303 µM (≈ 100 µg/mL) and greater than 303 µM, respectively.

With `c1ccc(COc2ccc3nc(-c4ccccc4)cn3n2)cc1`, the MIC90 in assay [1] is 332 µM (≈ 100 µg/mL); in assay [2] it was greater than 330 µM.

As to `CN(Cc1ccccc1)c1ccc2nc(-c3ccccc3F)c(O)n2n1`, the MIC90 in assay [1] turned out to be 144 µM (≈ 50.2 µg/mL); in assay [2], 287 µM (≈ 100 µg/mL).

As to `COc1c(-c2ccccc2)nc2ccc(SCc3ccsc3)nn12`, the results for the MIC90 in assay [1] and in assay [2] were 0.7 µM (≈ 0.247 µg/mL) and 1.41 µM (≈ 0.498 µg/mL), respectively. For `COc1ccc(-c2nc3ccc(SCc4ccccc4)nn3c2OC)cc1`, the MIC90 in assay [1] was greater than 260 µM. `COc1cccc(CSc2ccc3nc(-c4ccc(Cl)cc4)c(OC)n3n2)c1`: the MIC90 in assay [1] was found to be 9.71 µM (≈ 4 µg/mL); in assay [2], 3.03 µM (≈ 1.25 µg/mL).

Turning to `COc1cccc(CNc2ccc3nc(-c4ccc(C)cc4)c(OC)n3n2)c1`, the MIC90 in assay [1] and in assay [2] was 13.4 µM (≈ 5.02 µg/mL) in each case.

Consider `COc1cccc(CSc2ccc3nc(-c4ccc(F)cc4F)c(CN4CCOCC4)n3n2)c1`, for which the MIC90 in assay [1] and in assay [2] was 207 µM (≈ 99.9 µg/mL) each time. With `COc1cccc(CNc2ccc3nc(-c4ccccc4F)c(OC)n3n2)c1`, the MIC90 in assay [1] and in assay [2] was 6.61 µM (≈ 2.5 µg/mL) throughout.

For `CCOc1c(-c2ccccc2)nc2ccc(SCc3ccccc3)nn12`, the MIC90 in assay [1] and in assay [2] was 69.2 µM (≈ 25 µg/mL) in each case. On to `COc1cccc(CSc2ccc3nc(-c4cccc([N+](=O)[O-])c4)c(OC)n3n2)c1`, for which the MIC90 in assay [1] and in assay [2] was greater than 230 µM throughout. On to `COc1c(-c2ccccc2)nc2ccc(SCc3ccccc3Cl)nn12`, for which the MIC90 in assay [1] is greater than 260 µM. For `COc1cccc(CSc2ccc3nc(-c4ccc(F)cc4)c(CN(C)C)n3n2)c1`, the MIC90 was found to be 23.7 µM (≈ 10 µg/mL) in assay [1] and 47.3 µM (≈ 20 µg/mL) in assay [2].

Regarding `COc1cccc(CSc2ccc3nc(-c4ccc(F)cc4F)c(CN(C)C)n3n2)c1`, the MIC90 in assay [1] and in assay [2] was 227 µM (≈ 100 µg/mL) in each case. As to `COc1c(Cc2ccccc2)nc2ccc(SCc3cccc(C)c3)nn12`, the MIC90 was 87.9 µM (≈ 33 µg/mL) in assay [1] and 26.6 µM (≈ 9.99 µg/mL) in assay [2]. For `CN(Cc1ccccc1)c1ccc2nc(-c3ccc(F)cc3)c(O)n2n1` the same measures were 144 µM (≈ 50.2 µg/mL) and 144 µM (≈ 50.2 µg/mL). For `COc1cccc(CNc2ccc3nc(-c4cccc([N+](=O)[O-])c4)c(OC)n3n2)c1` the same measures were greater than 240 µM and greater than 240 µM. Consider `CN(C)Cc1c(-c2ccccc2)nc2ccc(SCc3ccccc3)nn12`, for which the results for the MIC90 in assay [1] and in assay [2] were 6.68 µM (≈ 2.5 µg/mL) and 13.4 µM (≈ 5.02 µg/mL), respectively.

Consider `COc1cccc(CNc2ccc3nc(-c4ccccc4)c(OC)n3n2)c1`, for which the MIC90 in assay [1] and in assay [2] was 6.94 µM (≈ 2.5 µg/mL) each time. As for `COc1c(-c2ccc(C(F)(F)F)cc2)nc2ccc(N(C)Cc3ccccc3)nn12`, the values for the MIC90 in assay [1] and in assay [2] were 6.06 µM (≈ 2.5 µg/mL) and 12.1 µM (≈ 4.99 µg/mL), respectively.

With `COCCOc1c(-c2ccccc2)nc2ccc(SCc3cccc(OC)c3)nn12`, the MIC90 in assay [1] was 29.7 µM (≈ 12.5 µg/mL); in assay [2], 119 µM (≈ 50.2 µg/mL). With `COc1cccc(COc2ccc3nc(-c4ccc(C(F)(F)F)cc4)c(OC)n3n2)c1`, the MIC90 in assay [1] and in assay [2] was greater than 230 µM throughout. `COc1c(-c2ccccc2)nc2ccc(SCc3ccccn3)nn12`: the MIC90 in assay [1] was 5.74 µM (≈ 2 µg/mL); in assay [2], 2.87 µM (≈ 1 µg/mL). For `COc1cccc(CSc2ccc3nc(-c4ccc(OC)c(OC)c4)c(OC)n3n2)c1` the same measures were greater than 220 µM and greater than 220 µM. For `COc1c(-c2ccc(Br)cc2)nc2ccc(N(C)Cc3ccccc3)nn12`, the results for the MIC90 in assay [1] and in assay [2] were 5.91 µM (≈ 2.5 µg/mL) and 11.8 µM (≈ 5 µg/mL), respectively. The like results for `COc1cccc(COc2ccc3nc(-c4ccc(F)cc4)c(OC)n3n2)c1` were, in that order, 2.64 µM (≈ 1 µg/mL) and 2.64 µM (≈ 1 µg/mL). For `COc1c(-c2ccc(F)cc2F)nc2ccc(SCc3ccsc3)nn12` the same measures were 10.3 µM (≈ 4.01 µg/mL) and 2.57 µM (≈ 1 µg/mL). For the compound `COc1c(-c2ccccc2)nc2ccc(SCc3cc(C)on3)nn12`, the MIC90 in assay [1] and in assay [2] was 284 µM (≈ 100 µg/mL) each time. For the compound `COc1cccc(COc2ccc3nc(-c4cccc(C(F)(F)F)c4)c(OC)n3n2)c1`, the MIC90 in assay [1] is greater than 230 µM. On to `COc1c(-c2cccc([N+](=O)[O-])c2)nc2ccc(N(C)Cc3ccccc3)nn12`, for which the MIC90 in assay [1] and in assay [2] was greater than 250 µM in each case. Regarding `COc1cccc(CNc2ccc3nc(-c4cccc(C(F)(F)F)c4)c(OC)n3n2)c1`, the MIC90 in assay [1] came out at 23.3 µM (≈ 9.98 µg/mL); in assay [2], 9.34 µM (≈ 4 µg/mL). Turning to `COc1cccc(CSc2ccc3nc(-c4ccc(F)cc4F)c(OC)n3n2)c1`, the MIC90 in assay [1] came out at 15.1 µM (≈ 6.24 µg/mL); in assay [2], 1.21 µM (≈ 0.5 µg/mL).

`COc1cccc(CNc2ccc3nc(-c4ccc(C(F)(F)F)cc4)c(OC)n3n2)c1`: the MIC90 in assay [1] turned out to be 11.7 µM (≈ 5.01 µg/mL); in assay [2], 23.3 µM (≈ 9.98 µg/mL). `COc1c(-c2cccc(N)c2)nc2ccc(N(C)Cc3ccccc3)nn12`: the MIC90 in assay [1] is 34.8 µM (≈ 12.5 µg/mL); in assay [2] it was 13.9 µM (≈ 5 µg/mL). The like results for `COc1cccc(CSc2ccc3nc(-c4ccc(Cl)c(Cl)c4)c(OC)n3n2)c1` were, in that order, greater than 220 µM and greater than 220 µM.

With `CN(Cc1ccccc1)c1ccc2nc(-c3ccc(Cl)cc3)c(O)n2n1`, the MIC90 in assay [1] was 274 µM (≈ 100 µg/mL); in assay [2], greater than 274 µM. The like results for `COc1cccc(CS(=O)(=O)c2ccc3nc(-c4ccc(F)cc4F)c(OC)n3n2)c1` were, in that order, 225 µM (≈ 100 µg/mL) and 225 µM (≈ 100 µg/mL). The like results for `CN(Cc1ccccc1)c1ccc2nc(-c3ccc(F)cc3F)c(O)n2n1` were, in that order, 273 µM (≈ 100 µg/mL) and greater than 273 µM. For `COc1c(Cc2ccccc2)nc2ccc(SCc3cccc([N+](=O)[O-])c3)nn12`, the MIC90 was greater than 245 µM in assay [1] and 24.6 µM (≈ 10 µg/mL) in assay [2]. With `COc1c(-c2ccccc2)nc2ccc(Sc3ccccc3)nn12`, the MIC90 in assay [1] is 150 µM (≈ 50 µg/mL).

The values are drawn from ChEMBL document CHEMBL5625205, “3-Methoxy-2-phenylimidazo[1,2-b]pyridazines highly active against Mycobacterium tuberculosis and Mycobacterium marinum” (Eur J Med Chem, 2023).
